Values quoted from earlier work as cited in patent US20240141352A1, “CHAPERONIN-CONTAINING TCP-1 INHIBITORS FOR THE TREATMENT OF CANCER” (UNIVERSITY OF CENTRAL FLORIDA RESEARCH FOUNDATION, INC., priority 2021, published 2024).

How the values were obtained:
[1] = test system: cancer cells that highly express CCT
CCT2 subunit = molecular target: T1, CCT2 subunit (Homo sapiens, UniProt P78371)
T1 sequence (P78371 1-535): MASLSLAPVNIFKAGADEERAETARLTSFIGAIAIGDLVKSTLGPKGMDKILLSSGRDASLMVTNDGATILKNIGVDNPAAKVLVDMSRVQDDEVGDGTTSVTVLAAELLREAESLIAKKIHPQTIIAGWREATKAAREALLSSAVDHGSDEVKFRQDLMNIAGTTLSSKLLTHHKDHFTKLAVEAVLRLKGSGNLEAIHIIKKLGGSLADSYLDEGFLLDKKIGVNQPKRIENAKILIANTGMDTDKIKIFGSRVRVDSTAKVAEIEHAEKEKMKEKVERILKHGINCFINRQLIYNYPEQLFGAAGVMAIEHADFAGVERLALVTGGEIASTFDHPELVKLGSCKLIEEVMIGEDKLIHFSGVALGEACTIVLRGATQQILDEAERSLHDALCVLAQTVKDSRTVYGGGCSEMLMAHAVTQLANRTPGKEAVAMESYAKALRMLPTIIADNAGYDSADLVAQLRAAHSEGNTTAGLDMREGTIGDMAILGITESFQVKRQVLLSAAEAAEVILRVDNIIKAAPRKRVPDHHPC

[2] = test system: breast and prostate tumors; details: systemic delivery with polymeric nanoparticles
MDA-MB-231 cells = details: MDA-MB-231 spheroids

Molecule | cytotoxicity [1] | binding to CCT2 subunit (CCT2 subunit) | tumor regression [2] | resistance of spheroids to treatment (MDA-MB-231 cells)
VTIFVAGVLTASLTIWKKMG [CT20p] | cytotoxic | directly binds | regression | –
COc1cccc2c1C(=O)c1c(O)c3c(c(O)c1C2=O)C[C@@](O)(C(=O)CO)C[C@@H]3O[C@H]1C[C@H](N)[C@H](O)[C@H](C)O1 [doxorubicin] | – | – | – | increased resistance
N.N.O=C([O-])C1(C(=O)[O-])CCC1.[Pt+2] [carboplatin] | – | – | – | increased resistance
